Active and inactive are the calls of the source.
Experiments:
[1] = biological target: Bone morphogenetic protein receptor type-1A (Homo sapiens) (UniProt P36894); experiment: Inhibition of ALK3 (unknown origin) at 1 uM
[2] = biological target: Casein kinase I isoform alpha (Homo sapiens) (UniProt P48729); experiment: Inhibition of CK1a1 (unknown origin) at 1 uM
[3] = biological target: Serine/threonine-protein kinase LATS1 (Homo sapiens) (UniProt O95835); experiment: Inhibition of LATS1 (unknown origin) at 1 uM
[4] = Metabolic stability in human liver microsomes assessed as rate constant; format: ADME, Microsome
PBMC = experiment: Inhibition of IDO1/IDO2 in IFNgamma/LPS-stimulated human PBMCs assessed as reduction in kynurenine formation at 0.0001 to 10 uM pretreated with compound for 15 mins followed by IFNgamma/LPS stimulation by LC-MS/MS analysis; format: tissue-based; details: dose 0.0001-10 µM
[5] = biological target: Calcium/calmodulin-dependent protein kinase kinase 2 (Homo sapiens) (UniProt Q96RR4); experiment: Inhibition of CAMKK2 (unknown origin) at 1 uM
[6] = biological target: Mitogen-activated protein kinase kinase kinase 9 (Homo sapiens) (UniProt P80192); experiment: Inhibition of MLK1 (unknown origin) at 1 uM
[7] = biological target: CDK9/cyclin T1 (Homo sapiens) (UniProt O60563+P50750); experiment: Inhibition of CDK9/cyclin-T1 (unknown origin) at 1 uM; format: protein-complex assay
[8] = biological target: CDK9/Cyclin-T2 (Homo sapiens) (UniProt P50750+O60583); experiment: Inhibition of CDK9/cyclin-T2 (unknown origin) at 1 uM; format: protein-complex assay
[9] = biological target: Mitogen-activated protein kinase 8 (Homo sapiens) (UniProt P45983); experiment: Inhibition of JNK1 (unknown origin) at 1 uM
[10] = Intrinsic clearance in monkey liver microsomes; format: ADME, Macaca mulatta, Microsome; details: rhesus monkey, read-out: CLH
[11] = biological target: Casein kinase I isoform alpha-like (Homo sapiens) (UniProt Q8N752); experiment: Inhibition of CK1a1L (unknown origin) at 1 uM
[12] = biological target: Serine/threonine-protein kinase NLK (Homo sapiens) (UniProt Q9UBE8); experiment: Inhibition of NLK (unknown origin) at 1 uM
[13] = Intrinsic clearance in human liver microsomes; format: ADME, Microsome; details: read-out: CLH
[14] = biological target: Serine/threonine-protein kinase 32C (Homo sapiens) (UniProt Q86UX6); experiment: Inhibition of STK32C (unknown origin) at 1 uM
[15] = biological target: Serine/threonine-protein kinase PAK 1 (Homo sapiens) (UniProt Q13153); experiment: Inhibition of PAK1 (unknown origin) at 1 uM
[16] = biological target: Serine/threonine-protein kinase 16 (Homo sapiens) (UniProt O75716); experiment: Inhibition of STK16 (unknown origin) at 1 uM
[17] = biological target: Serine/threonine-protein kinase PAK 6 (Homo sapiens) (UniProt Q9NQU5); experiment: Inhibition of PAK6 (unknown origin) at 1 uM
[18] = biological target: Tyrosine-protein kinase Lyn (Homo sapiens) (UniProt P07948); experiment: Inhibition of LYN (unknown origin) at 1 uM
[19] = biological target: Tyrosine-protein kinase Srms (Homo sapiens) (UniProt Q9H3Y6); experiment: Inhibition of SRMS (unknown origin) at 1 uM
HeLa = experiment: Cytotoxicity against human HeLa cells assessed as reduction in cell viability at 1 to 10 uM by CCK8 assay; format: functional, cell-based; details: dose 1-10 µM
[20] = biological target: Serine/threonine-protein kinase ULK2 (Homo sapiens) (UniProt Q8IYT8); experiment: Inhibition of ULK2 (unknown origin) at 1 uM
[21] = biological target: Tyrosine-protein kinase Fgr (Homo sapiens) (UniProt P09769); experiment: Inhibition of FGR (unknown origin) at 1 uM
[22] = biological target: Activin receptor type-1 (Homo sapiens) (UniProt Q04771); experiment: Inhibition of ALK2 (unknown origin) at 1 uM
[23] = biological target: Tyrosine-protein kinase ABL1 (Homo sapiens) (UniProt P00519); experiment: Inhibition of ABL1 (unknown origin) at 1 uM
[24] = Apparent permeability across basolateral to apical side in human Caco-2 cells assessed as drug recovery; format: ADME, cell-based; details: read-out: Drug recovery
Mus musculus = experiment: Toxicity in BALB/c mouse implanted with mouse CT26 cells assessed as weight loss at 50 mg/kg, ip bid for 28 days; format: organism-based; details: in vivo, 672 h, time 28 day
[25] = biological target: STE20/SPS1-related proline-alanine-rich protein kinase (Homo sapiens) (UniProt Q9UEW8); experiment: Inhibition of STK39 (unknown origin) at 1 uM
[26] = biological target: Myosin light chain kinase (Homo sapiens) (UniProt Q32MK0); experiment: Inhibition of MYLK3 (unknown origin) at 1 uM
[27] = biological target: Insulin receptor (Homo sapiens) (UniProt P06213); experiment: Inhibition of IR (unknown origin) at 1 uM
[28] = biological target: Serine/threonine-protein kinase pim-1 (Homo sapiens) (UniProt P11309); experiment: Inhibition of PIM1 (unknown origin) at 1 uM
[29] = biological target: Tyrosine-protein kinase SYK (Homo sapiens) (UniProt P43405); experiment: Inhibition of SYK (unknown origin) at 1 uM
[30] = biological target: Dual specificity protein kinase CLK4 (Homo sapiens) (UniProt Q9HAZ1); experiment: Inhibition of CLK4 (unknown origin) at 1 uM
[31] = biological target: Receptor-type tyrosine-protein kinase FLT3 (Homo sapiens) (UniProt P36888); experiment: Inhibition of FLT3 (unknown origin) at 1 uM
[32] = biological target: Calcium/calmodulin-dependent protein kinase type 1 (Homo sapiens) (UniProt Q14012); experiment: Inhibition of CAMK1A (unknown origin) at 1 uM
[33] = Protein binding in Beagle dog plasma assessed as fraction unbound by equilibrium dialysis; format: ADME, cell-free, Canis lupus familiaris
[34] = biological target: Death-associated protein kinase 1 (Homo sapiens) (UniProt P53355); experiment: Inhibition of DAPK1 (unknown origin) at 1 uM
[35] = biological target: Myosin light chain kinase family member 4 (Homo sapiens) (UniProt Q86YV6); experiment: Inhibition of MYLK4 (unknown origin) at 1 uM
[36] = biological target: Receptor tyrosine-protein kinase erbB-2 (Homo sapiens) (UniProt P04626); experiment: Inhibition of ERBB2 (unknown origin) at 1 uM
[37] = Toxicity in rat assessed as maximum tolerated dose; format: organism-based; details: in vivo
[38] = biological target: Serine/threonine-protein kinase Nek4 (Homo sapiens) (UniProt P51957); experiment: Inhibition of NEK4 (unknown origin) at 1 uM
[39] = biological target: Serine/threonine-protein kinase PAK 2 (Homo sapiens) (UniProt Q13177); experiment: Inhibition of PAK2 (unknown origin) at 1 uM
[40] = biological target: Beta-adrenergic receptor kinase 1 (Homo sapiens) (UniProt P25098); experiment: Inhibition of GRK2 (unknown origin) at 1 uM
[41] = biological target: Calcium/calmodulin-dependent protein kinase type 1D (Homo sapiens) (UniProt Q8IU85); experiment: Inhibition of CAMK1D (unknown origin) at 1 uM
[42] = biological target: Testis-specific serine/threonine-protein kinase 2 (Homo sapiens) (UniProt Q96PF2); experiment: Inhibition of TSSK2 (unknown origin) at 1 uM
Testis-specific serine/threonine-protein kinase 2 (Homo sapiens), sequence (Q96PF2 whole entry): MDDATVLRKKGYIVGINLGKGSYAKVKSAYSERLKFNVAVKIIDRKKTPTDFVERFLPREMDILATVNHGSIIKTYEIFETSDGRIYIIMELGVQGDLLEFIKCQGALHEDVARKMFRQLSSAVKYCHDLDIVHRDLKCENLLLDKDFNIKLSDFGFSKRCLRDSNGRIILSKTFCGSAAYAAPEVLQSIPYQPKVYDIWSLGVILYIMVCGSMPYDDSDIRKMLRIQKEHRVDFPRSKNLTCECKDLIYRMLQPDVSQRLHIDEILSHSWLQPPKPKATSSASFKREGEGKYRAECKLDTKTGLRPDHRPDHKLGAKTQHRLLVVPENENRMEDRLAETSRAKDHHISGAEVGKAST

Insulin receptor (Homo sapiens), sequence (P06213 28-758 limits assumed): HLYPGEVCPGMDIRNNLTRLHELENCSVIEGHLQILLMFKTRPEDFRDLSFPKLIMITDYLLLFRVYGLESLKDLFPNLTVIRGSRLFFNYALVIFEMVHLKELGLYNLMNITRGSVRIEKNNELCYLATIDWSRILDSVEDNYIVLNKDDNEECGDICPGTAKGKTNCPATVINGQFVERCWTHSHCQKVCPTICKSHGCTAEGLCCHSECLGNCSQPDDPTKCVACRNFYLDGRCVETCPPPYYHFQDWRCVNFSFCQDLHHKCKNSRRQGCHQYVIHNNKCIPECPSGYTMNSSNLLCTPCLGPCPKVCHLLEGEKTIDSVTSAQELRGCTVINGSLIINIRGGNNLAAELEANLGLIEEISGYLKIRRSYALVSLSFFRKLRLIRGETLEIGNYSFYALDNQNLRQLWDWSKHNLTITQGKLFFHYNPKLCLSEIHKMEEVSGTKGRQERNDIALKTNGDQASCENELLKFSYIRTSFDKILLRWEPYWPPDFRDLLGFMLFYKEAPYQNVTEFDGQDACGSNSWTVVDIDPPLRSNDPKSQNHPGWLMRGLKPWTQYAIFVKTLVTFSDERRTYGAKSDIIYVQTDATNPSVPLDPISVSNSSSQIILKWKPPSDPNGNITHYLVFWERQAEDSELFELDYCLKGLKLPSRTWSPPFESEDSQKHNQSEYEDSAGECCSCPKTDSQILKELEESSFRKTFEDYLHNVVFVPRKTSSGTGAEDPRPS
Insulin receptor (Homo sapiens), sequence (P06213 763-1382 limits assumed): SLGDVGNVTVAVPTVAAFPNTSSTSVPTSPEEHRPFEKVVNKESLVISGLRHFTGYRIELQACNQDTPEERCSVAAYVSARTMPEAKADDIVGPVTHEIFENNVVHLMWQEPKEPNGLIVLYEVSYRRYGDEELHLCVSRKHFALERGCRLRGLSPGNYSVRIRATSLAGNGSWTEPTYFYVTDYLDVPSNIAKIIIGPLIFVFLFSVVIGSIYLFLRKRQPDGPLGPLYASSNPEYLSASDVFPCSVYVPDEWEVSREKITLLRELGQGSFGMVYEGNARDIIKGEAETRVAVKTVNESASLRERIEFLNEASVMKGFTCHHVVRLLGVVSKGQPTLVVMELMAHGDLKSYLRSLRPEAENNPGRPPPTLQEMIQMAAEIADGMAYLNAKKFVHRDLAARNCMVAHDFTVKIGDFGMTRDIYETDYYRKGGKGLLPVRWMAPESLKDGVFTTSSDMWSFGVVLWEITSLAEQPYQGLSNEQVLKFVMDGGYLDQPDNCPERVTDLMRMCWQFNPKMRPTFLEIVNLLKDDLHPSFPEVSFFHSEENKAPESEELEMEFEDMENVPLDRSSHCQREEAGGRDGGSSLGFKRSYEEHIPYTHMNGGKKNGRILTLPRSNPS
Calcium/calmodulin-dependent protein kinase type 1D (Homo sapiens), sequence (Q8IU85 whole entry, looked up): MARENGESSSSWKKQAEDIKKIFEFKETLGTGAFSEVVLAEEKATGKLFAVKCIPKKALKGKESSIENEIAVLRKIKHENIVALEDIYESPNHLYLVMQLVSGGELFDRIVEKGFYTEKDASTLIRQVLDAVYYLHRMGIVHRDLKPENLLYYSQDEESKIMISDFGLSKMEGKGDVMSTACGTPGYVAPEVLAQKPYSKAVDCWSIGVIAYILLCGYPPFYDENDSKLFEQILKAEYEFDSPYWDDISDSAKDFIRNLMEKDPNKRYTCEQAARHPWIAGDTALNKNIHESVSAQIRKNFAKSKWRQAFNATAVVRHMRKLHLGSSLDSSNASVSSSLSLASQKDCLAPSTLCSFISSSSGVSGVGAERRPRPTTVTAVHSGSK
Calcium/calmodulin-dependent protein kinase kinase 2 (Homo sapiens), sequence (Q96RR4 2-588 limits assumed): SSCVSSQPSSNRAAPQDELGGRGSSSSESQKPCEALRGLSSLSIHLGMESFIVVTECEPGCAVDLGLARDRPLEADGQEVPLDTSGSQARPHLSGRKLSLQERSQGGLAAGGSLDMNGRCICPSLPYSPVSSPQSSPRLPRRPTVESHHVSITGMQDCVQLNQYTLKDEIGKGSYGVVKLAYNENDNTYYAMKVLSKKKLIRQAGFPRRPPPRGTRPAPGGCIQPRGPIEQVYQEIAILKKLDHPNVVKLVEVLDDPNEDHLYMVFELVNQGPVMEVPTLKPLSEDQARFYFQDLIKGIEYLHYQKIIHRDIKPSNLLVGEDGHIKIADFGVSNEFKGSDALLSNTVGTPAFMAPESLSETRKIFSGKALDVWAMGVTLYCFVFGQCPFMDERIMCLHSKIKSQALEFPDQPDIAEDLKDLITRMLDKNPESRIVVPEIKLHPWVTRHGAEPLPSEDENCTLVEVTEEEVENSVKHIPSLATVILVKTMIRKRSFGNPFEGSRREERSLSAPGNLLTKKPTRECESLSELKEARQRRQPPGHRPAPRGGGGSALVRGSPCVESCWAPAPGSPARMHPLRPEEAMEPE
Serine/threonine-protein kinase LATS1 (Homo sapiens), sequence (O95835 whole entry): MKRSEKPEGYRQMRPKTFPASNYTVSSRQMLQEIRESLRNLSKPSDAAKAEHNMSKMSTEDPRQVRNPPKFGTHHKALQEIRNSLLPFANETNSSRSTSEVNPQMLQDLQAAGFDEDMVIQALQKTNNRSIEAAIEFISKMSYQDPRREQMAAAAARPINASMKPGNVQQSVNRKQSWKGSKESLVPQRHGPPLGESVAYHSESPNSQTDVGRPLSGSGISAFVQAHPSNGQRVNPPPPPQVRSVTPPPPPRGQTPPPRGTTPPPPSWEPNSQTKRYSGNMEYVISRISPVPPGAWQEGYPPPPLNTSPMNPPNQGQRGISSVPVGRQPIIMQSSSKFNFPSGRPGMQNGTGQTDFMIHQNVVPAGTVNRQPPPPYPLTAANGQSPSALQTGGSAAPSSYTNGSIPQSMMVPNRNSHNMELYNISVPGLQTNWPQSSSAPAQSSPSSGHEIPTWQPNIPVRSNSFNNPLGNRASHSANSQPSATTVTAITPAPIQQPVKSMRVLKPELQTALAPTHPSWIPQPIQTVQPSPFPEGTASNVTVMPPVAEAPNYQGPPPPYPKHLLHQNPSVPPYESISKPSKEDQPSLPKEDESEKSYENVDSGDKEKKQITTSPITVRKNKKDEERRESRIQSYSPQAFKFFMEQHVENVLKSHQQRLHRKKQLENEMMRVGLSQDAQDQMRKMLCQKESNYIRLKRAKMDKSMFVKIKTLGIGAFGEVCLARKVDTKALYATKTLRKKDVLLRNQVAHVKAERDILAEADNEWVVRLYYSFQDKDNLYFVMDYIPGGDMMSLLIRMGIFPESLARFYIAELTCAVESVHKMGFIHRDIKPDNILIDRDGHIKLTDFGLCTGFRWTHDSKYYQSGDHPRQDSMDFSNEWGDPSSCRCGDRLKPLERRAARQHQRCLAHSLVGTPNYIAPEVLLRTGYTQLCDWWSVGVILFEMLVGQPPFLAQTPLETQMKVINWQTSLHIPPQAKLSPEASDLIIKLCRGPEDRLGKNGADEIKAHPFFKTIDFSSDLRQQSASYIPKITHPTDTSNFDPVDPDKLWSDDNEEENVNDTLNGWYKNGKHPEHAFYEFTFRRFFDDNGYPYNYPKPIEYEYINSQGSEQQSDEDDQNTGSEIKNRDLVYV
Serine/threonine-protein kinase PAK 2 (Homo sapiens), sequence (Q13177 whole entry): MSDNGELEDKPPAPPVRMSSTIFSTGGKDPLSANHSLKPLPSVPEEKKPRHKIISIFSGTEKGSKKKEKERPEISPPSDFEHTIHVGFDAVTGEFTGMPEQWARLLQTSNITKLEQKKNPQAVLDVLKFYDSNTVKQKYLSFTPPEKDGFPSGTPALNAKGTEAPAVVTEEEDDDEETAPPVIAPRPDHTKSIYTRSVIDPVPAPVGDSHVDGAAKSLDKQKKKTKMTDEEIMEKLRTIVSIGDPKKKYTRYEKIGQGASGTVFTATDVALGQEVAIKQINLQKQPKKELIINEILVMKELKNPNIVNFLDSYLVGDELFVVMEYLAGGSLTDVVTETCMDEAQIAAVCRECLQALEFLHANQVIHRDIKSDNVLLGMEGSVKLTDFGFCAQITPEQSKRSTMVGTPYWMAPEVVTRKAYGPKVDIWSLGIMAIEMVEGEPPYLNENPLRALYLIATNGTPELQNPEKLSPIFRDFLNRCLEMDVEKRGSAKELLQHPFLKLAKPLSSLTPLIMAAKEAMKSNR
Serine/threonine-protein kinase NLK (Homo sapiens), sequence (Q9UBE8 whole entry): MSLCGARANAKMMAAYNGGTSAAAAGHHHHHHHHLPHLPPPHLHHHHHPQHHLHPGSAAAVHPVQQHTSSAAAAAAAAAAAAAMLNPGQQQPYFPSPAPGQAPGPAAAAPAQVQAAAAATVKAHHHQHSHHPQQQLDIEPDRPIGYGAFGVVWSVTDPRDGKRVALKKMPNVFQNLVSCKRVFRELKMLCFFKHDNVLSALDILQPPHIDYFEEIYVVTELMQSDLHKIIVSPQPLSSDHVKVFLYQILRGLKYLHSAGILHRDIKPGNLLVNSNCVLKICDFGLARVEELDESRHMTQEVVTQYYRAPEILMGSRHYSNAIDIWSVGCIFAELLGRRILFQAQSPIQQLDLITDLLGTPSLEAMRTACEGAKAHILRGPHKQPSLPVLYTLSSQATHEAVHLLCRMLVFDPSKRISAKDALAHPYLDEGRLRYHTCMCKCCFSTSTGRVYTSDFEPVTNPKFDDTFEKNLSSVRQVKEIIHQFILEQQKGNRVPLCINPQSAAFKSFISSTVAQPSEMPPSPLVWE

OCCOCc1cn(CCNc2nonc2/C(=N/O)Nc2ccc(F)c(Br)c2)nn1
0.0498: fraction unbound [33]
0.00025 s⁻¹: k el [4]
112%: recovery [24]
Non-Toxic: Activity (Mus musculus)
inactive: inhibition [1] | inhibition [2] | inhibition [3] | inhibition [5] | inhibition [6] | inhibition [7] | inhibition [8] | inhibition [9] | inhibition [11] | inhibition [12] | inhibition [14] | inhibition [15] | inhibition [16] | inhibition [17] | inhibition [18] | inhibition [19] | inhibition [20] | inhibition [21] | inhibition [22] | inhibition [23] | inhibition [25] | inhibition [26] | inhibition [27] | inhibition [28] | inhibition [29] | inhibition [30] | inhibition [31] | inhibition [32] | inhibition [34] | inhibition [35] | inhibition [36] | inhibition [38] | inhibition [39] | inhibition [40] | inhibition [41] | inhibition [42]
36 µL/min/mg: microsomal CLint [10]
active: inhibition (PBMC) | Activity (HeLa)
2 mg/kg: MTD [37]
30.1 µL/min/mg: microsomal CLint [13]

Source: ChEMBL document CHEMBL5055685, “Discovery of the First Potent IDO1/IDO2 Dual Inhibitors: A Promising Strategy for Cancer Immunotherapy” (J Med Chem, 2021)
